Measured values as given in patent US20070292908A1, “Method for Detecting Streptococcus Agalactiae Using Alpha-Glucosidase Activity” (BIOMERIEUX, priority 2004, published 2007).

Key:
Streptococcus agalactiae [1] = assay: Number of strains detected as a function of the concentration of α-glucosidase substrate; type: cell-based; conditions: positive when I≧0.6, 8 strains
Text: The above protocol was repeated, with the exception that the concentration of enzymatic substrate was varied.
Table 2 below gives the number of strains detected (considered to be positive when I≧0.6) as a function of the concentration of substrate.

Streptococcus agalactiae [2] = assay: Detection of Streptococcus agalactiae strains on reaction media containing an α-glucosidase enzymatic substrate; type: cell-based; conditions: substrate 0.1 g/l; for intensity (I) of coloration: arbitrary scale 0 to 4
Protocol: The reaction media were prepared by mixing heart-brain extract (4.84 g/l; Solabia), meat infusion (1.96 g/l; Solabia), biothione (1 g/l; Solabia), biotrypcase (7.2 g/l; Solabia), sodium carbonate (0.3 g/l; VWR), sodium pyruvate (2 g/l; Fluka), HEPES buffer (0.4 g/l; Sigma), lactalbumin peptone (2 g/l; DMV), glucose (1 g/l; Merck), American agar (2 g/l; Sobigel) and European agar (12 g/l; Roko).
The media were then poured into a Petri dish for subsequent inoculation with bacterial strains.
Eight Streptococcus agalactiae strains derived from the applicant's collection, suspended in physiological saline, were inoculated so as to give isolated colonies on each of the media. The dishes were then incubated at 37° C. for 48 hours. The colonies formed are examined visually after 18, 24 and more than 40 hours of incubation. The coloration of these colonies, the growth and also the intensity of this coloration were noted.
The results are given in table 1 below and are expressed: • in terms of growth (G) with the size being indicated in mm, • in terms of intensity (1) of coloration based on an arbitrary scale ranging from 0 to 4, 0 corresponding to an absence of activity and 4 corresponding to the presence of a very intense coloration, • in terms of color (Co) with T=turquoise, R=pink or red, Gr=green, Mg=magenta, • according to the incubation time in hours (T).

number of strains detected (Streptococcus agalactiae [1]; substrate 100 mg/l, incubation 24 h): 1/8
number of strains detected (Streptococcus agalactiae [1]; substrate 100 mg/l, incubation 48 h): 7/8
number of strains detected (Streptococcus agalactiae [1]; substrate 200 mg/l, incubation 24 h): 3/8
number of strains detected (Streptococcus agalactiae [1]; substrate 200 mg/l, incubation 48 h): 8/8
number of strains detected (Streptococcus agalactiae [1]; substrate 300 mg/l, incubation 24 h): 6/8
number of strains detected (Streptococcus agalactiae [1]; substrate 300 mg/l, incubation 48 h): 8/8
intensity (I) of coloration (Streptococcus agalactiae [2]; strain 0008200, 18 h): 0.1
growth (G), size (Streptococcus agalactiae [2]; strain 0008200, 18 h incubation): 0.5 mm
intensity (I) of coloration (Streptococcus agalactiae [2]; strain 0008200, 24 h): 0.3
growth (G), size (Streptococcus agalactiae [2]; strain 0008200, 24 h incubation): 0.5 mm
intensity (I) of coloration (Streptococcus agalactiae [2]; strain 0008200, >40 h): 0.5
growth (G), size (Streptococcus agalactiae [2]; strain 0008200, >40 h incubation): 0.5 mm
intensity (I) of coloration (Streptococcus agalactiae [2]; strain 0008206, 18 h): 0.1
growth (G), size (Streptococcus agalactiae [2]; strain 0008206, 18 h incubation): 0.7 mm
intensity (I) of coloration (Streptococcus agalactiae [2]; strain 0008206, 24 h): 0.3
growth (G), size (Streptococcus agalactiae [2]; strain 0008206, 24 h incubation): 0.8 mm
intensity (I) of coloration (Streptococcus agalactiae [2]; strain 0008206, >40 h): 0.8
growth (G), size (Streptococcus agalactiae [2]; strain 0008206, >40 h incubation): 1.2 mm
intensity (I) of coloration (Streptococcus agalactiae [2]; strain 0101060, 18 h): 0.3
growth (G), size (Streptococcus agalactiae [2]; strain 0101060, 18 h incubation): 0.5 mm
intensity (I) of coloration (Streptococcus agalactiae [2]; strain 0101060, 24 h): 0.6
growth (G), size (Streptococcus agalactiae [2]; strain 0101060, 24 h incubation): 0.7 mm
intensity (I) of coloration (Streptococcus agalactiae [2]; strain 0101060, >40 h): 2.3
growth (G), size (Streptococcus agalactiae [2]; strain 0101060, >40 h incubation): 0.8 mm
intensity (I) of coloration (Streptococcus agalactiae [2]; strain 7611003, 18 h): 0.3
growth (G), size (Streptococcus agalactiae [2]; strain 7611003, 18 h incubation): 1 mm
intensity (I) of coloration (Streptococcus agalactiae [2]; strain 7611003, 24 h): 0.6
growth (G), size (Streptococcus agalactiae [2]; strain 7611003, 24 h incubation): 1.3 mm
intensity (I) of coloration (Streptococcus agalactiae [2]; strain 7611003, >40 h): 1.3
growth (G), size (Streptococcus agalactiae [2]; strain 7611003, >40 h incubation): 1.7 mm
growth (G), size (Streptococcus agalactiae [2]; strain 7701031, 18 h incubation): 0.5 mm
growth (G), size (Streptococcus agalactiae [2]; strain 7701031, 24 h incubation): 0.7 mm
intensity (I) of coloration (Streptococcus agalactiae [2]; strain 7701031, >40 h): 0.5
growth (G), size (Streptococcus agalactiae [2]; strain 7701031, >40 h incubation): 1.2 mm
intensity (I) of coloration (Streptococcus agalactiae [2]; strain 7702055, 18 h): 0.1
growth (G), size (Streptococcus agalactiae [2]; strain 7702055, 18 h incubation): 0.7 mm
intensity (I) of coloration (Streptococcus agalactiae [2]; strain 7702055, 24 h): 0.1
growth (G), size (Streptococcus agalactiae [2]; strain 7702055, 24 h incubation): 1 mm
intensity (I) of coloration (Streptococcus agalactiae [2]; strain 7702055, >40 h): 1
growth (G), size (Streptococcus agalactiae [2]; strain 7702055, >40 h incubation): 1.7 mm
growth (G), size (Streptococcus agalactiae [2]; strain 8709013, 18 h incubation): 0.4 mm
growth (G), size (Streptococcus agalactiae [2]; strain 8709013, 24 h incubation): 0.5 mm
intensity (I) of coloration (Streptococcus agalactiae [2]; strain 8709013, >40 h): 0.5
growth (G), size (Streptococcus agalactiae [2]; strain 8709013, >40 h incubation): 0.7 mm
intensity (I) of coloration (Streptococcus agalactiae [2]; strain 8904053, 18 h): 0.1
growth (G), size (Streptococcus agalactiae [2]; strain 8904053, 18 h incubation): 0.7 mm
intensity (I) of coloration (Streptococcus agalactiae [2]; strain 8904053, 24 h): 0.3
growth (G), size (Streptococcus agalactiae [2]; strain 8904053, 24 h incubation): 0.7 mm
intensity (I) of coloration (Streptococcus agalactiae [2]; strain 8904053, >40 h): 1
growth (G), size (Streptococcus agalactiae [2]; strain 8904053, >40 h incubation): 0.8 mm
Compound: OC[C@H]1O[C@H](Oc2c[nH]c3cc(Cl)ccc23)[C@H](O)[C@@H](O)[C@@H]1O [Rose-alpha-Glu, 6-chloro-3-indolyl-α-D-glucopyranoside]
